For this test, the system named is CYR61 gene expression. Put plainly: CYR61 gene expression in ARPE-19/HPV16 cells treated for 24 hours, Affymetrix probe sets. It is filed as cell-based, human. Set-up: amplitude: scale not given here. As to conditions: 10 uM; for Fold (CYR61 Downregulation): versus vehicle. The method, then: In a study leading to embodiments of the invention, a human retinal pigment epithelial cell line (ARPE-19/HPV16) was separately treated with an anthracycline (doxorubicin or daunorubicin), a statin (simvastatin or lovastatin), or vehicle for 24 hours and gene expression for […] probe sets covering 12,490 genes was generated using an Affymetrix instrument. The effects of these compounds on the expression of CYR61 are shown below in Table 1.

Experimental findings from patent US20220401464A1, “TREATMENT OF CYR61- AND VEGF-MEDIATED CONDITIONS” (VANDA PHARMACEUTICALS INC., priority 2013, published 2022) are described below.

Structures are written as SMILES. Structures can show the parent of a compound that is named as a salt.

`CC(=O)[C@]1(O)Cc2c(O)c3c(c(O)c2[C@@H](O[C@H]2C[C@H](N)[C@H](O)[C@H](C)O2)C1)C(=O)c1ccccc1C3=O` [Idarubicin HCl]: under “probe 201289_at”, the Rank is given as 22273, the amplitude is on record as −1.899 and the “Fold (CYR61 Downregulation)” value is −38.72. For the setting “probe 210764_s_at”, the Rank turned out to be 22267, the amplitude is given as −1.875 and the “Fold (CYR61 Downregulation)” value was −31.13.

In the case of `COc1cccc2c1C(=O)c1c(O)c3c(c(O)c1C2=O)C[C@@](O)(C(=O)CO)C[C@@H]3O[C@H]1C[C@H](N)[C@H](O)[C@H](C)O1` [Doxorubicin HCl], under “probe 201289_at”, the Rank is 22282, the amplitude is reported as −1.967 and the “Fold (CYR61 Downregulation)” value was −118.5. Where the note is “probe 210764_s_at”, the Rank was found to be 22272, the amplitude is −1.925 and the “Fold (CYR61 Downregulation)” value was −52.26.

On to `CC[C@H](C)C(=O)O[C@H]1C[C@@H](C)C=C2C=C[C@H](C)[C@H](CC[C@@H]3C[C@@H](O)CC(=O)O3)[C@H]21` [Lovastatin], for which, under “probe 201289_at”, the Rank came out at 22271, the amplitude is −1.412 and the “Fold (CYR61 Downregulation)” value is reported as −5.799. Where the note is “probe 210764_s_at”, the Rank came out at 22264, the amplitude is −1.297 and the “Fold (CYR61 Downregulation)” value is recorded as −4.687.

As to `COc1cccc2c1C(=O)c1c(O)c3c(c(O)c1C2=O)C[C@@](O)(C(C)=O)C[C@@H]3O[C@H]1C[C@H](N)[C@H](O)[C@H](C)O1` [Daunorubicin HCl], under “probe 201289_at”, the Rank was 22278, the amplitude is on record as −1.921 and the “Fold (CYR61 Downregulation)” value was −49.81. Where the note is “probe 210764_s_at”, the Rank is 22239, the amplitude is on record as −1.8272 and the “Fold (CYR61 Downregulation)” value is recorded as −22.15.

With `CCC(C)(C)C(=O)O[C@H]1C[C@@H](C)C=C2C=C[C@H](C)[C@H](CC[C@@H]3C[C@@H](O)CC(=O)O3)[C@H]21` [Simvastatin], for the setting “probe 201289_at”, the Rank is on record as 22255, the amplitude was −1.378 and the “Fold (CYR61 Downregulation)” value is −5.428. For the setting “probe 210764_s_at”, the Rank is recorded as 22262, the amplitude was −1.3931 and the “Fold (CYR61 Downregulation)” value is reported as −5.591.
